Laboratory results published in patent US20080096894A1, “Anti-Bacterial Compounds” (ASTON UNIVERSITY, priority 2005, published 2008).
Values after ≈ are worked out from the molar mass of the structure shown. Where two headings read alike, the source gives them in different places.

Legend:
Experiment in all cases: MIC, agar dilution, multipoint inoculator
[1] = test system: S. aureus; format: cell-based, Staphylococcus aureus; conditions: upper value of MIC reading
Method: (§1) This activity was measured using a multipoint inoculator method as follows. The MIC for each compound was measured using an agar dilution method (Onda, H., et al., Int. J. Antimicrob. Agents. 18, 263 (2001)) (Mueller Hinton agar) by means of a multipoint inoculator delivering 10^4 colony forming units per spot.

[2] = test system: MRSA; format: cell-based, methicillin-resistant Staphylococcus aureus
Method: as §1
‘Staph’ refers to the reference strain of S. aureus (NCTC 6571). A tick in the MRSA column refers to a positive zone against MRSA strain 96-7474, and the MIC range (in μg/ml) which follows is that found against a panel of ten MRSA strains. Where MIC values are given for MRSA, these are stated as a range of values, as testing was carried out on a panel of clinical isolates.

[3] = test system: E. faecium; format: cell-based, Enterococcus faecium; conditions: upper value of MIC reading
Method: as §1

[4] = test system: S. epidemisis; format: cell-based, Staphylococcus epidermidis; conditions: upper value of MIC reading
Method: as §1

[5] = test system: B. bronchiseptica; format: cell-based; conditions: B. bronchiseptica NCTC 8344; upper value of MIC reading
Method: as §1

[6] = test system: E. faecalis; format: cell-based; conditions: upper value of MIC reading
Method: as §1

[7] = test system: S. haemolyticus; format: cell-based; conditions: S. haemolyticus Isolate 1, upper value of MIC reading
Method: as §1

[8] = test system: S. maltophilia; format: cell-based; conditions: S. maltophilia NCTC 10257, upper value of MIC reading
Method: as §1

[9] = test system: E. coli; format: cell-based, Escherichia coli; conditions: Escherichia coli, 18 h, upper value of MIC reading
Method: as §1

[10] = test system: S. marcesens; format: cell-based, Serratia marcescens; conditions: S. marcesens 4444, upper value of MIC reading
Method: as §1

[11] = test system: P. auriginosa; format: cell-based, Pseudomonas aeruginosa; conditions: P. auriginosa NCTC 6749, upper value of MIC reading
Method: as §1

[12] = test system: K. pneumoniae; format: cell-based, Klebsiella pneumoniae; conditions: K. pneumoniae 327; upper value of MIC reading
Method: as §1

[13] = test system: S. aboni; format: cell-based; conditions: S. aboni NCTC 6017; upper value of MIC reading
Method: as §1

[14] = MRSA Isolate 5, upper value of MIC reading, in µg/mL
[15] = MRSA Isolate 1, upper value of MIC reading, in µg/mL
[16] = MRSA Isolate 2, upper value of MIC reading, in µg/mL
[17] = MRSA Isolate 3, upper value of MIC reading, in µg/mL
[18] = MRSA Isolate 4, upper value of MIC reading, in µg/mL
[19] = MRSA Isolate 10, upper value of MIC reading, in µg/mL
[20] = panel of ten MRSA strains (clinical isolates)

In the case of NC(=NN=Cc1ccc(O)c(O)c1O)c1ccccn1 [Compound 2PYcb], the MIC ([1]; S. aureus Cowan 1) is reported as 256 µg/mL (≈ 940 µM), the MIC [2, 14] is reported as 256 and the MIC ([3]; E. faecium NCTC 7171) is reported as 256 µg/mL (≈ 940 µM). For the same molecule, the MIC ([4]; S. epidemisis Isolate 1) was 256 µg/mL (≈ 940 µM) and the MIC [5] was 256 µg/mL (≈ 940 µM).

Molecule CCC(C)(C)c1ccc(/C=N/N=C(\N)c2cccnc2)cc1 [Compound 3PYaf, N^1-[4-(1,1-dimethylpropyl)benzylidene]-pyridine-3-carboxamidrazone] has an MIC ([1]; Staphylococcus aureus, 18 h, S. aureus Cowan 1, read-out: MIC) of 64 µg/mL (≈ 217 µM), an MIC ([1]; Staphylococcus aureus, NCTC6571, 18 h, S. aureus NCTC 6571, read-out: MIC) of 64 µg/mL (≈ 217 µM) and an MIC ([1]; Staphylococcus aureus, NCTC10788, 18 h, S. aureus NCTC 10788, read-out: MIC) of 64 µg/mL (≈ 217 µM). For the same molecule, the MIC ([2]; Staphylococcus aureus, 18 h, MRSA Isolate 1, upper value of MIC reading, read-out: MIC) was 64 µg/mL (≈ 217 µM), the MIC ([2]; Staphylococcus aureus, 18 h, MRSA Isolate 2, upper value of MIC reading, read-out: MIC) was 64 µg/mL (≈ 217 µM) and the MIC ([2]; Staphylococcus aureus, 18 h, MRSA Isolate 3, upper value of MIC reading, read-out: MIC) was 64 µg/mL (≈ 217 µM). It also gave an MIC ([2]; Staphylococcus aureus, 18 h, MRSA Isolate 4, upper value of MIC reading, read-out: MIC) of 64 µg/mL (≈ 217 µM), an MIC ([2]; Staphylococcus aureus, 18 h, MRSA Isolate 5, upper value of MIC reading, read-out: MIC) of 64 µg/mL (≈ 217 µM) and an MIC ([2]; Staphylococcus aureus, 18 h, MRSA Isolate 6, upper value of MIC reading, read-out: MIC) of 64 µg/mL (≈ 217 µM). It also gave an MIC ([2]; Staphylococcus aureus, 18 h, MRSA Isolate 7, upper value of MIC reading, read-out: MIC) of 64 µg/mL (≈ 217 µM), an MIC ([2]; Staphylococcus aureus, 18 h, MRSA Isolate 8, upper value of MIC reading, read-out: MIC) of 64 µg/mL (≈ 217 µM) and an MIC ([2]; Staphylococcus aureus, 18 h, MRSA Isolate 9, upper value of MIC reading, read-out: MIC) of 64 µg/mL (≈ 217 µM). It also gave an MIC ([2]; Staphylococcus aureus, 18 h, MRSA Isolate 10, upper value of MIC reading, read-out: MIC) of 64 µg/mL (≈ 217 µM), an MIC ([2]; Staphylococcus aureus, MRSA, 18 h, panel of ten MRSA strains (clinical isolates), read-out: MRSA MIC range) of 32 to 64 µg/mL (≈ 109 to 217 µM) and an MIC ([3]; Enterococcus faecium, 18 h, E. faecium ACTCC 10541, read-out: MIC) of 64 µg/mL (≈ 217 µM). The MIC ([3]; Enterococcus faecium, NCTC7171, 18 h, E. faecium NCTC 7171, read-out: MIC) was 64 µg/mL (≈ 217 µM), the MIC ([4]; Staphylococcus epidermidis, 18 h, S. epidemisis Isolate 1, read-out: MIC) was 128 µg/mL (≈ 435 µM) and the MIC ([4]; Staphylococcus epidermidis, NCTC11047, 18 h, S. epidemisis NCTC 11047, read-out: MIC) was 32 µg/mL (≈ 109 µM). The MIC ([6]; Enterococcus faecalis, 18 h, E. faecalis EBH1, read-out: MIC) was 128 µg/mL (≈ 435 µM), the MIC ([6]; Enterococcus faecalis, 18 h, E. faecalis Isolate 1, read-out: MIC) was 64 µg/mL (≈ 217 µM) and the MIC ([6]; Enterococcus faecalis, 18 h, E. faecalis Isolate 2, read-out: MIC) was 64 µg/mL (≈ 217 µM). For the same molecule, the MIC ([6]; Enterococcus faecalis, 18 h, E. faecalis Isolate 4, read-out: MIC) was 128 µg/mL (≈ 435 µM), the MIC ([6]; Enterococcus faecalis, 18 h, E. faecalis Isolate 5, read-out: MIC) was 128 µg/mL (≈ 435 µM) and the MIC ([6]; Enterococcus faecalis, NCTC5957, 18 h, E. faecalis NCTC 5957, read-out: MIC) was 64 µg/mL (≈ 217 µM). For the same molecule, the MIC ([7]; Staphylococcus haemolyticus, 18 h, read-out: MIC) was 64 µg/mL (≈ 217 µM), the MIC ([8]; Stenotrophomonas maltophilia, NCTC10257, 18 h, read-out: MIC) was 64 µg/mL (≈ 217 µM) and the MIC ([9]; E. coli W3110R+) was 64 µg/mL (≈ 217 µM). The MIC ([9]; E. coli W3110R−) was 64 µg/mL (≈ 217 µM), the MIC ([10]; Serratia marcescens, 18 h, read-out: MIC) was 256 µg/mL (≈ 870 µM) and the MIC ([11]; Pseudomonas aeruginosa, NCTC6749, 18 h, read-out: MIC) was 64 µg/mL (≈ 217 µM).

CCOc1ccccc1C=NN=C(N)c1cccnc1 [Compound 3PYay] was tested, and the MIC ([1]; S. aureus NCTC 6571) was > 256 µg/mL, the MIC [2, 15] was 256 and the MIC [2, 16] was 128. For the same molecule, the MIC [2, 17] was 128, the MIC [2, 18] was 128 and the MIC [2, 14] was 128. The MIC [2, 19] was 256, the “MRSA MIC range” value [2, 20] was > 256 µg/mL and the MIC ([4]; S. epidemisis NCTC 11047) was 128 µg/mL (≈ 477 µM). The MIC ([6]; E. faecalis EBH1) was 128 µg/mL (≈ 477 µM), the MIC ([6]; E. faecalis Isolate 1) was 128 µg/mL (≈ 477 µM) and the MIC ([6]; E. faecalis Isolate 2) was 128 µg/mL (≈ 477 µM). It also gave an MIC ([6]; E. faecalis NCTC 5957) of 128 µg/mL (≈ 477 µM), an MIC [7] of 256 µg/mL (≈ 954 µM) and an MIC [8] of 256 µg/mL (≈ 954 µM). For the same molecule, the MIC [12] was 256 µg/mL (≈ 954 µM), the MIC [10] was 256 µg/mL (≈ 954 µM) and the MIC [11] was 128 µg/mL (≈ 477 µM).

NC(=NN=Cc1cc(Br)cc([N+](=O)[O-])c1O)c1cccnc1 [Compound 3PYcl] was tested, and the MIC ([1]; S. aureus Cowan 1) was 64 µg/mL (≈ 176 µM), the MIC ([1]; S. aureus NCTC 6571) was 32 µg/mL (≈ 87.9 µM) and the MIC ([1]; S. aureus NCTC 10788) was 32 µg/mL (≈ 87.9 µM). It also gave an MIC [2, 15] of 64, an MIC [2, 16] of 64 and an MIC [2, 17] of 64. For the same molecule, the MIC [2, 18] was 32, the MIC [2, 14] was 32 and the MIC ([2]; MRSA Isolate 6, upper value of MIC reading, in µg/mL) was 64. For the same molecule, the MIC ([2]; MRSA Isolate 7, upper value of MIC reading, in µg/mL) was 64, the MIC ([2]; MRSA Isolate 8, upper value of MIC reading, in µg/mL) was 64 and the MIC ([2]; MRSA Isolate 9, upper value of MIC reading, in µg/mL) was 64. The MIC [2, 19] was 64, the “MRSA MIC range” value [2, 20] was 16 to 64 µg/mL and the MIC ([3]; E. faecium ACTCC 10541) was 128 µg/mL (≈ 351 µM). It also gave an MIC ([3]; E. faecium NCTC 7171) of 256 µg/mL (≈ 703 µM), an MIC ([4]; S. epidemisis Isolate 1) of 256 µg/mL (≈ 703 µM) and an MIC ([4]; S. epidemisis NCTC 11047) of 256 µg/mL (≈ 703 µM). It also gave an MIC ([6]; E. faecalis EBH1) of 256 µg/mL (≈ 703 µM), an MIC ([6]; E. faecalis Isolate 1) of 128 µg/mL (≈ 351 µM) and an MIC ([6]; E. faecalis Isolate 2) of 128 µg/mL (≈ 351 µM). It also gave an MIC ([6]; E. faecalis Isolate 4) of 256 µg/mL (≈ 703 µM), an MIC ([6]; E. faecalis Isolate 5) of 128 µg/mL (≈ 351 µM) and an MIC ([6]; E. faecalis NCTC 5957) of 128 µg/mL (≈ 351 µM). It also gave an MIC [13] of 256 µg/mL (≈ 703 µM) and an MIC [7] of 128 µg/mL (≈ 351 µM).
